In paper PMC8263924 (The Journal of General Physiology, 2021):
Residue numbers refer to the chain shown, from its start. Where two headings read alike, the source gives them in different places.

What was measured:
Hv1 WT [1] = molecular target: T1, Hv1 WT (Homo sapiens, UniProt Q96D96); format: cell-based; conditions: for IC50: IC50 ± SE, inside-out patch, +120 mV, pHin = pHout = 6.0; for Inhibition of Hv1 WT (comparison of potency): compounds tested at 50 µM, Fig. 5 E
T1 sequence (Q96D96 1-273): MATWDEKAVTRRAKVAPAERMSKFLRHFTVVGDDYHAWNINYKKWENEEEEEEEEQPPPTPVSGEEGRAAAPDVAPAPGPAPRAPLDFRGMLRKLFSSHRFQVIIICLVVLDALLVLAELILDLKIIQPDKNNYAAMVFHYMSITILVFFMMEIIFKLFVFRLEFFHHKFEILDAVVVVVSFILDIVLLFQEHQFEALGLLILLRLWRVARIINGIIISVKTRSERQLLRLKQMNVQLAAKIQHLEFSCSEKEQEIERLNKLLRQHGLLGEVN

Hv1 F150A = molecular target: T2, Hv1 F150A (Homo sapiens, UniProt Q96D96, F150A); assay: Inhibition of proton currents, inside-out patch clamp, Hv1 F150A; format: cell-based
T2 sequence (Q96D96 1-273 F150A): T1 sequence (Q96D96 1-273) with F150A

[2] = Solubility in recording solution; format: physicochemical; conditions: concentrations >1 mM
Hv1 WT [3] = molecular target: T1, Hv1 WT; conditions: dimeric Hv1; ref Hong et al., 2015; cited from earlier work

Row | SMILES | IC50 (Hv1 WT [1]; Hv1 WT) [µM] | IC50 (Hv1 F150A) [µM] | also measured
1 | Cc1[nH]c(N)nc1CCC(=O)c1ccccc1.Cl [HIFNF, 3-(2-amino-5-methyl-1H-imidazol-4-yl)-1-phenylpropan-1-one hydrochloride] | – | – | IC50,ABI/IC50,HIFNF (Hv1 WT [1]; Hv1 WT): ~7.7; IC50,ABI/IC50,HIFNF (Hv1 F150A; Hv1 F150A): ~0.05
2 | Nc1nc2cc(F)c(F)cc2[nH]1 [ABIF2, 5,6-difluoro-1H-1,3-benzodiazol-2-amine] | 244 ± 19 | 0.012 ± 0.001 | –
3 | Cc1[nH]c(N)nc1CCC(O)c1cc(F)cc(F)c1.Cl (stereo not shown) [HIFOH, 3-(2-amino-5-methyl-1H-imidazol-4-yl)-1-(3,5-difluorophenyl)propan-1-ol hydrochloride] | – | – | Inhibition of Hv1 WT (comparison of potency) (Hv1 WT [1]): less effective at reducing the proton current than HIF, HIFNH, and HIFEN
4 | Nc1nc2ccccc2[nH]1 [ABI, 2-aminobenzimidazole] | 553 ± 43 | 0.018 ± 0.001 | Inhibition of Hv1 F150A (comparison with ABTA) (Hv1 F150A; ABI at 100 nM versus ABTA at 500 nM): much larger inhibition than ABTA; Inhibition of Hv1 F150A (Hv1 F150A; at 500 nM): saturated
5 | Cc1[nH]c(N)nc1/C=C/C(=O)c1cc(F)cc(F)c1.Cl [HIFEN, (2E)-3-(2-amino-5-methyl-1H-imidazol-4-yl)-1-(3,5-difluorophenyl)prop-2-en-1-one hydrochloride] | – | – | h ± SE (Hill coefficient) (Hv1 WT [1]; Hv1 WT (dimeric), fit with Hill equation): ~1.5; Inhibition of Hv1 WT (comparison of potency) (Hv1 WT [1]; 50 µM): slightly more potent than HIF
6 | Nc1nc2c(F)c(F)c(F)cc2[nH]1 [ABIF3, 4,5,6-trifluoro-1H-1,3-benzodiazol-2-amine] | 699 ± 45 | 0.093 ± 0.006 | Solubility under tested conditions [2]: not soluble at higher concentrations
7 | N=C(N)Nc1nc2ccccc2s1 [GBTA, 2-guanidino-benzothiazole] | – | – | Hill coefficient (Hv1 WT [3]): > 1

Second part, led by results:

Row | IC50 (Hv1 WT [1]; Hv1 WT) [µM] | IC50 (Hv1 F150A) [µM] | SMILES | also measured
8 | 312 ± 17 | 0.013 ± 0.001 | Nc1nc2cc(F)ccc2[nH]1 [ABIFβ, 6-fluoro-1H-1,3-benzodiazol-2-amine] | –
9 | 729 ± 56 | 0.04 ± 0.001 | Nc1nc2c(F)cccc2[nH]1 [ABIFα, 4-fluoro-1H-1,3-benzodiazol-2-amine] | –
10 | 13 ± 1 | – | Cc1[nH]c(N)nc1CCC(=O)c1cc(F)cc(F)c1.Cl [HIF, 3-(2-amino-5-methyl-1H-imidazol-4-yl)-1-(3,5-difluorophenyl)propan-1-one hydrochloride] | IC50,HIFNF/IC50,HIF (Hv1 WT [1]; Hv1 WT): ~5.4; IC50,HIFNF/IC50,HIF (Hv1 F150A; Hv1 F150A): ~7.0
